Data published in patent US20250152504A1, “INTRAUTERINE SYSTEMS COMPRISING ANTI-INFECTIVES FOR STEADY-STATE ACCUMULATION TO DISTAL EXTRAUTERINE TISSUE” (priority 2023, published 2025).
Values after ≈ are worked out from the molar mass of the structure shown.

Assays:
[1] = In vitro drug release from TPU matrix delivery system prototypes; assay type: physicochemical; conditions: for Predicted T50%: from best-fit release model
Experimental: Films were cut into disks with a 1-inch diameter die punch; disks were stacked and placed between two pieces of aluminum foil and compressed under a metal weight on a 120° C. dry bath. Thickness was monitored frequently until it measured 3.5 mm with digital calipers calibrated to 0.01 mm. Devices were cut from thick films using a custom rectangular 3.5 mm×13.3 mm die punch.
All release tests were performed in sink conditions in PBS supplemented with 2% w/v Cremophor® A25/Emulgin® B25. For the first 7-days of drug release testing, 1 mL samples were taken daily; following 7 days, samples were taken every 3-4 days. At all timepoints, bottles were drained and replaced with fresh media following sampling.
A qualification for selecting an optimal TPU for DPV delivery in this application is the time to achieve 50% cumulative release of drug. This is based on the standard use time of hormonal IUDs, which in practice are removed once about half of the initial load of drug is depleted from the device. Here, this standard was used as a benchmark to evaluate the sustained release properties of candidate delivery system designs. […] The fit of first-order release kinetics to the data was assessed. Equations 1 and 2 describe drug release from a system where dissolution is dependent on a concentration gradient.
Where k is the first order rate constant, Ct is the concentration of drug in solution at time t and C0 is the initial concentration of drug.
Where Q is the amount of drug release in time t and kh is the Higuchi release constant.
Based on the best-fit square-root of time relation, T50% was calculated for each TPU. […] Korsmeyer and Peppas provided a method for understanding drug release mechanisms of swelling and non-swelling polymeric systems, given by Equation 4: […]
Where Mt/M∝ is the fraction of drug released at time t, K is the rate constant, and n is the release exponent.

[2] = physchem; assay type: physicochemical; conditions: 37 °C, aqueous with cosolvent or surfactant or cyclodextrin, thermodynamic from solid
Excerpt: FIGS. 6A-6C are graphs showing differential dapivirine release driven by polymer crystallinity and water penetration, in accordance with the present technology.

[3] = test system: HIV-1; conditions: cited from earlier work
[4] = cited from earlier work
[5] = assay type: physicochemical
Excerpt: Both polyether sheath reservoirs (R1 & R2) released DPV faster than polycarbonate sheath reservoirs (R3 & R4). […] Thus, with DPV loaded at 1 wt % which is below the saturation solubility, these reservoirs contain a nonconstant activity source. Pursuant to the behavior of reservoirs with a nonconstant activity source, these reservoirs released drug following first-order release kinetics. Despite this expectation, drug release from all four reservoir devices was described slightly better by a square-root of time dependence.

[6] = assay type: in vivo; conditions: baboon, about one month of intrauterine instillation
Excerpt: Animals were monitored for signs of discomfort including decreased appetite, lethargy, and hunched posture. Tissue biopsies for histological analysis were fixed in 4% paraformaldehyde, dehydrated in alcohol, and embedded in paraffin. Cross sectional samples (5 μm) were taken and stained with hematoxylin and eosin (H&E) stain.
Vaginal tissue biopsies taken pre-insertion and 28-days post-insertion show characteristic features of healthy a vaginal epithelium, including a multilayered stratified squamous epithelium consisting of enucleated cells, a densely nucleated basal cell layer, and an inconspicuous lamina propria. Vaginal tissue biopsied 28-days post insertion has an intact stratified squamous epithelium that measures approximately 200 μm thick. Both pre-insertion and 28-days post-insertion cervical biopsies contain regions of a single columnar epithelium, while the underlying cervical stroma is composed of densely vascularized, fibromuscular tissue. The 28-day post-insertion cervical biopsy contains a thick stratus corneum of the exocervix; the epithelium overlays a prominent lymphoid aggregate, a feature of mucosa-associated lymphoid tissue (MALT) in the type I mucosa of the endocervix. Some cellular atypia is notable as a few epithelial cells display irregular nuclear membranes and perinuclear halos. […]

[7] = In vitro release of 1% dapivirine from ethylene-vinyl acetate polymers; assay type: physicochemical; conditions: 1% DPV in EVA, within 720 hours
Excerpt: Ethylene-vinyl acetate polymers (EVA) were also investigated for the use in the intrauterine systems described herein. FIGS. 19A-19B are graphs showing release for dapirivine (DPV) in ethylene-vinyl acetate polymers (EVAs), in accordance with the present technology.

In the case of `Cc1cc(C)c(Nc2ccnc(Nc3ccc(C#N)cc3)n2)c(C)c1` [DPV, dapivirine], the “DPV dose released per day” value ([1]; 1 wt % DPV, all four TPUs, within target range) is reported as 10 to 50 µg/day, the “Actual T50%” value ([1]; 1 wt % loading, TPU1 matrix) is reported as 12 days and the “First-Order: k” value ([1]; 1 wt % loading, TPU1 matrix) is reported as 0.002, h^−1. For the same compound, the “Higuchi: kH” value ([1]; 1 wt % loading, TPU1 matrix) was 0.029, %/h^1/2, the “Korsmeyer-Peppas Constant: n” value ([1]; 1 wt % loading, TPU1 matrix) was 0.525, and the “Predicted T50%” value ([1]; 1 wt % loading, TPU1 matrix) was 12 days. For the same compound, the “Actual T50%” value ([1]; 1 wt % loading, TPU2 matrix) was 12 days, the “First-Order: k” value ([1]; 1 wt % loading, TPU2 matrix) was 0.002, h^−1 and the “Higuchi: kH” value ([1]; 1 wt % loading, TPU2 matrix) was 0.027, %/h^1/2. The “Korsmeyer-Peppas Constant: n” value ([1]; 1 wt % loading, TPU2 matrix) was 0.549,, the “Predicted T50%” value ([1]; 1 wt % loading, TPU2 matrix) was 13.5 days and the “Actual T50%” value ([1]; 1 wt % loading, TPU3 matrix) was 7 days. The “First-Order: k” value ([1]; 1 wt % loading, TPU3 matrix) was 0.004, h^−1, the “Higuchi: kH” value ([1]; 1 wt % loading, TPU3 matrix) was 0.038, %/h^1/2 and the “Korsmeyer-Peppas Constant: n” value ([1]; 1 wt % loading, TPU3 matrix) was 0.662,. For the same compound, the “Predicted T50%” value ([1]; 1 wt % loading, TPU3 matrix) was 7 days, the “First-Order: k” value ([1]; 1 wt % loading, TPU4 matrix) was 0.0007, h^−1 and the “Higuchi: kH” value ([1]; 1 wt % loading, TPU4 matrix) was 0.017, %/h^1/2. The “Korsmeyer-Peppas Constant: n” value ([1]; 1 wt % loading, TPU4 matrix) was 0.614,, the “Predicted T50%” value ([1]; 1 wt % loading, TPU4 matrix) was 36 days and the “cumulative release of encapsulated drug” value ([1]; 1 wt %, TPU3 matrix, by 30 days / one month) was “approximately 95%”. For the same compound, the “First-Order: k” value ([1]; 16.6 wt % loading, TPU4 matrix) was 0.0005 h⁻¹, the “Higuchi: kH” value ([1]; 16.6 wt % loading, TPU4 matrix) was 0.014, %/h^1/2 and the “Predicted T50%” value ([1]; 16.6 wt % loading, TPU4 matrix) was 53.5 days. The “cumulative release of loaded drug” value ([1]; 16.6 wt %, TPU4 matrix, after 30 days) was “approximately 33.5%”, the release rate ([1]; 16.6 wt %, TPU4 matrix, final rate at 30 days, per each ⅓ segment of the device) was “approximately 62.56 μg/day” and the solubility [2] was 164 ± 9.4 µg/mL (≈ 497 µM). The “inhibition of provirus formation” value ([3]; at 1 nM (0.33 ng/mL)) was 99%, the “infection prevented (dissemination of HIV-1 by CD4+ dendritic cells)” value ([3]; at 10 nM (3.3 ng/mL)) was 90% and the “IC90 in cervicovaginal tissue” value ([3]; concentration with which tissue explants were treated) was 3.3 ng/mL (≈ 0.01 µM). For the same compound, the “lowest concentration inhibiting productive infection of ectocervical tissue” value ([3]; ex vivo viral inhibition model) was 0.1 nM, the Cmax ([4]; in vivo) was 0.355 ng/mL and the treatment-emergent adverse events ([4]; in vivo) was “no treatment-emergent adverse events were observed”. The “plasma concentration required to reduce viral load” value ([4]; oral DPV administration) was 100 to 200 ng/mL, the “saturation solubility of DPV in a PY-PT43DE20 core” value [5] was 5.46±0.93 wt % and the “tolerability / histological findings” value [6] was “likely safe and well-tolerated in baboons”. The “cumulative release of loaded DPV” value [7] was “about 80%”.
